Test results taken from PubChem BioAssay AID1996.
Values after ≈ are worked out from the molar mass of the structure shown.

Settings: buffer; pH 7.4; 200.0 µM
For O=C(/C=C/c1ccccc1)Nc1cccnc1, the solubility kinetic was over 33.6 µg/mL. In the case of O=C(Cc1ccc([N+](=O)[O-])cc1)Nc1ccc2c(c1)CCC2, the solubility kinetic is reported as 0.6 µg/mL (≈ 2.02 µM). Compound O=C1Nc2ccccc2O/C1=C\c1c(F)cccc1Cl has a solubility kinetic of 0.7 µg/mL (≈ 2.42 µM). For COC(=O)Nc1cc(C(=O)c2ccc(Cl)cc2Cl)c[nH]1, the solubility kinetic was 43.6 µg/mL (≈ 139 µM). Compound O=C(/C=C/c1ccccc1[N+](=O)[O-])N1CCc2ccccc2C1 has a solubility kinetic of 20.3 µg/mL (≈ 65.8 µM). Compound C/C(=N\O)c1noc(C)c1C(=O)Nc1nccs1 has a solubility kinetic of 2 µg/mL (≈ 7.51 µM). CCCOc1ccc(/C=N/NC(=O)CN2CCCCC2)cc1 showed a solubility kinetic of over 45.5 µg/mL. CN(C(=O)c1c[nH]c(=O)cc1C(F)(F)F)c1ccc(Cl)cc1 gave a solubility kinetic of 45.9 µg/mL (≈ 139 µM). O=S(=O)(CCN1CCOCC1)c1ccccc1 showed a solubility kinetic of over 38.3 µg/mL. With CCc1c(C)c(C#N)c2nc3ccccc3n2c1NC the solubility kinetic was 1.3 µg/mL (≈ 4.92 µM). Compound O=C(NCc1cccnc1)NC(=O)c1ccc(Cl)cc1 has a solubility kinetic of 3.8 µg/mL (≈ 13.1 µM). In the case of O=C(Nc1ccncc1)c1ccc([N+](=O)[O-])cc1Cl, the solubility kinetic is reported as 17.6 µg/mL (≈ 63.4 µM). In the case of COc1ccc(CCN(C)C/C=C/c2ccccc2)cc1OC, the solubility kinetic is reported as 30.1 µg/mL (≈ 96.7 µM). CN1CCN(S(=O)(=O)c2ccc(NC(=O)c3cccc(F)c3)cc2)CC1 showed a solubility kinetic of over 56.6 µg/mL. Work on Cc1ccccc1C1NC(c2ccccc2C)C([N+](=O)[O-])C(C)(C)C1[N+](=O)[O-] (stereo unspecified) yielded a solubility kinetic of 0.3 µg/mL (≈ 0.782 µM). With C=CCn1c(O)c(/C(C)=N/N2CCCCCC2)c(=O)[nH]c1=O the solubility kinetic was over 46 µg/mL. Work on O=C(NCCc1ccc(F)cc1)c1cc(=O)c2ccccc2o1 yielded a solubility kinetic of 9.4 µg/mL (≈ 30.2 µM). With COC(=O)c1ccccc1NC(=O)N1CCN(c2ccc(F)cc2)CC1 the solubility kinetic was 4.4 µg/mL (≈ 12.3 µM). Work on Cc1[nH]c2ccccc2c1C(=O)C(=O)NCCc1c[nH]c2ccccc12 yielded a solubility kinetic of 2.6 µg/mL (≈ 7.53 µM). O=C(COC(=O)C1CCC1)NC(=O)c1ccccc1 showed a solubility kinetic of over 39.2 µg/mL. C=CCNc1nc(N)c([N+](=O)[O-])c(Nc2cccc(Cl)c2)n1 gave a solubility kinetic of 0.1 µg/mL (≈ 0.312 µM). In the case of O=C(CCc1nc(-c2ccccn2)no1)NCc1ccc2c(c1)OCO2, the solubility kinetic is reported as 52.5 µg/mL (≈ 149 µM). Compound Cc1ccsc1CN(C)CC(=O)Nc1ccccc1C(=O)NC1CC1 has a solubility kinetic of over 53.6 µg/mL. CC(C)NC(=O)[C@@H]1CSC2c3ccccc3C(=O)N21 (stereo partly specified) gave a solubility kinetic of over 41.5 µg/mL. With Cc1cccc(N2Cc3ccc(Br)cc3C2)c1 the solubility kinetic was 4.8 µg/mL (≈ 16.7 µM). Compound c1ccc2c(c1)COC(CN1CCCCC1)OC2 has a solubility kinetic of 35.6 µg/mL (≈ 144 µM). For O=c1[nH]c(=S)[nH]c2nc(-c3ccccc3)cnc12, the solubility kinetic was over 38.4 µg/mL. COc1ccc(NC(=O)NCc2ccc(Cl)cc2)cc1 gave a solubility kinetic of 0.3 µg/mL (≈ 1.03 µM). CC1(NC(=O)CCc2nc3ccccc3c(=O)[nH]2)CCS(=O)(=O)C1 (stereo unspecified) showed a solubility kinetic of 49.2 µg/mL (≈ 141 µM). With O=C(Cc1ccc([N+](=O)[O-])cc1)Nc1nccs1 the solubility kinetic was 4.8 µg/mL (≈ 18.2 µM). In the case of O=c1[nH]c2c(Br)cnc([N+](=O)[O-])c2[nH]1, the solubility kinetic is reported as over 38.9 µg/mL. For CC(C)CC(=O)N1CCN(Cc2ccc3ccccc3c2)CC1, the solubility kinetic was 26.4 µg/mL (≈ 85 µM). CCS(=O)(=O)Nc1cccc(C(=O)O)c1 gave a solubility kinetic of 30.5 µg/mL (≈ 133 µM). Cc1noc(C)c1C(=O)N(C)Cc1ccccc1 gave a solubility kinetic of 34 µg/mL (≈ 139 µM). O=C(NC1CCCc2ccccc21)C12CC3CC(CC(O)(C3)C1)C2 (stereo unspecified) showed a solubility kinetic of 41.4 µg/mL (≈ 127 µM). With Cc1ccc(NC(=S)NCCc2ccc(Cl)cc2)c(C)c1 the solubility kinetic was under 0.3 µg/mL. CCOc1ccc2oc(C(=O)Nc3cc(C)ccn3)c(C)c2c1 showed a solubility kinetic of 1.2 µg/mL (≈ 3.87 µM). Compound C=CCn1c(SCC(C)=O)nc2sc3c(c2c1=O)CCC3 has a solubility kinetic of 4.6 µg/mL (≈ 14.4 µM). For Cc1ccc(C2(C)NC(=O)N(CC(=O)Nc3ccc4c(c3)CCC4)C2=O)cc1 (stereo unspecified), the solubility kinetic was 3.5 µg/mL (≈ 9.27 µM). In the case of COc1ccccc1/C=C(\NC(=O)c1ccccc1)C(=O)NCc1ccco1, the solubility kinetic is reported as 7 µg/mL (≈ 18.6 µM). With O=C(Nc1ccc2[nH]c(=O)[nH]c2c1)C(F)(F)F the solubility kinetic was 23.9 µg/mL (≈ 97.5 µM). Compound Cc1cc(C)c2c(n1)sc1c(N3CCCCC3)ncnc12 has a solubility kinetic of under 0.2 µg/mL. For O=c1c(Cc2ccc(Cl)cc2Cl)c(O)ccn1Cc1ccncc1, the solubility kinetic was over 54.2 µg/mL. Compound O=C(Nc1ccccc1N1CCOCC1)c1ccc2c(c1)OCCO2 has a solubility kinetic of 5.6 µg/mL (≈ 16.5 µM). CCOc1ccc(-c2csc3nc[nH]c(=O)c23)cc1 gave a solubility kinetic of 18.9 µg/mL (≈ 69.4 µM). O=C(CCNC(=O)c1ccccc1Cl)Nc1ccncc1 gave a solubility kinetic of 44.3 µg/mL (≈ 146 µM). In the case of S=C(c1ccccc1)N1CCCC1, the solubility kinetic is reported as over 28.7 µg/mL. With CC1CCN(C(=O)COc2ncnc3ccccc23)CC1 the solubility kinetic was 35.7 µg/mL (≈ 125 µM). In the case of Cc1ccccc1-n1c(C)c(C#N)c(=O)c(-[n+]2ccccc2)c1[S-], the solubility kinetic is reported as 45.5 µg/mL (≈ 136 µM). In the case of Nc1nc(Nc2ccccc2F)nc(N2CCCC2)c1[N+](=O)[O-], the solubility kinetic is reported as 25.8 µg/mL (≈ 81.1 µM). Compound Cc1cccc(C2=N/C(=C\c3cccs3)C(=O)O2)c1 has a solubility kinetic of 4 µg/mL (≈ 14.9 µM). Compound O=C(CSc1nc(C2CC2)nc2ccccc12)N1CCCCC1 has a solubility kinetic of 46.9 µg/mL (≈ 143 µM). Compound O=C(Nc1nc2cc3c(cc2s1)OCCO3)c1cccs1 has a solubility kinetic of 0.6 µg/mL (≈ 1.88 µM). For O=C(CN1CCN(C(=O)c2ccccc2)CC1)NC(=O)NCCC1=CCCCC1, the solubility kinetic was over 59.8 µg/mL. Compound CCOc1cc(C(=O)NC(C)CCc2ccccc2)cc(OCC)c1OCC (stereo unspecified) has a solubility kinetic of 0.8 µg/mL (≈ 2.08 µM). Compound O=C(O)/C=C/C(=O)Nc1cc(F)ccc1F has a solubility kinetic of over 34.1 µg/mL. Compound CC(=O)c1c(O)c2cccc3c2n(c1=O)CCC3 has a solubility kinetic of over 36.5 µg/mL. With CCCn1c(=O)c2ccccc2n2c(=S)[nH]nc12 the solubility kinetic was over 39 µg/mL. CCOC(=O)N1CCN(C(=S)NC(=O)c2cccc(OC)c2)CC1 showed a solubility kinetic of over 52.7 µg/mL. For CCC(=O)Nc1sc(Cc2ccc3c(c2)OCO3)c(C)c1C(N)=O, the solubility kinetic was 5.2 µg/mL (≈ 15 µM). In the case of Cc1cccc(Nc2nc(-c3ccc(O)c(O)c3)cs2)n1, the solubility kinetic is reported as 4.5 µg/mL (≈ 15 µM).
